Common to all, as to type: functional
In assay [1] the test system is Escherichia coli. Put plainly: Antimicrobial activity against delta-waaG deletion mutant containing Escherichia coli BW25113 incubated for 18 hrs at 37 degC by broth microdilution method. As to conditions: BW25113, 18 h. (Broth dilution looks for growth in wells or tubes with falling amounts of substance.)
Assay [2] deals with Escherichia coli. As to the kind of experiment: Antimicrobial activity against O-antigen lacking LPS containing wild type Escherichia coli BW25113 incubated for 18 hrs at 37 degC by broth microdilution method. As to conditions: BW25113, 18 h.
Assay [3] has as its system Escherichia coli. As to the kind of experiment: Antimicrobial activity against delta-sbmA deletion mutant containing Escherichia coli BW25113 incubated for 18 hrs at 37 degC by broth microdilution method. To be noted: BW25113, 18 h.
Assay [4] deals with Escherichia coli. Put plainly: Antimicrobial activity against Escherichia coli ATCC 25922 incubated for 18 hrs at 37 degC by broth microdilution method. To be noted: ATCC 25922, 18 h.

In brackets after ≈: the same amount, converted by molar mass. Non-standard residues stand in square brackets, D forms with d. Residues, ends and D or L forms follow the SMILES beside them. Arg(NO2) = N=C(NCCC[C@H](N)C(=O)O)N[N+](=O)[O-]; Gly(N-(CH2)3-guanidino) = N=C(N)NCCCNCC(=O)O; Arg(Me2a) = CN(C)C(=N)NCCC[C@H](N)C(=O)O

As to `CC[C@H](C)[C@H](NC(=O)CN(CCCNC(=N)N)C(=O)CNCCCNC(=N)N)C(=O)N[C@@H](CCCNC(=N)N)C(=O)N1CCC[C@H]1C(=O)N[C@@H](CCCNC(=N)N)C(=O)N1CCC[C@H]1C(=O)N1CCC[C@H]1C(=O)N[C@@H](CCCNC(=N)N)C(=O)N[C@@H](CC(C)C)C(=O)N1CCC[C@H]1C(=O)N[C@@H](CCCNC(=N)N)C(=O)N1CCC[C@H]1C(=O)N[C@@H](CCCNC(=N)N)C(=O)N1CCC[C@H]1C(=O)N[C@@H](CCCNC(=N)N)C(=O)N1CCC[C@H]1C(=O)N[C@@H](CC(C)C)C(=O)N1CCC[C@H]1C(=O)N[C@@H](Cc1ccc(O)cc1)C(=O)N1CCC[C@H]1C(=O)N[C@@H](CCCNC(=N)N)C(=O)N1CCC[C@H]1C(=O)O` (H-[Gly(N-(CH2)3-guanidino)][Gly(N-(CH2)3-guanidino)]IRPRPPRLPRPRPRPLPYPRP-OH), the MIC (commonly the lowest concentration that inhibits growth of the organism) against Escherichia coli [1] came out at 0.5 µM (≈ 1.45 µg/mL); against Escherichia coli [2] it was 0.5 µM (≈ 1.45 µg/mL); with Escherichia coli [3], 8 µM (≈ 23.2 µg/mL); in the assay with Escherichia coli [4] it was 1 µM (≈ 2.9 µg/mL).
On to `CC[C@H](C)[C@H](NC(=O)[C@H](CCCNC(=N)N)NC(=O)[C@@H](N)CCCN/C(N)=N\[N+](=O)[O-])C(=O)N[C@@H](CCCNC(=N)N)C(=O)N1CCC[C@H]1C(=O)N[C@@H](CCCNC(=N)N)C(=O)N1CCC[C@H]1C(=O)N1CCC[C@H]1C(=O)N[C@@H](CCCNC(=N)N)C(=O)N[C@@H](CC(C)C)C(=O)N1CCC[C@H]1C(=O)N[C@@H](CCCNC(=N)N)C(=O)N1CCC[C@H]1C(=O)N[C@@H](CCCNC(=N)N)C(=O)N1CCC[C@H]1C(=O)N[C@@H](CCCNC(=N)N)C(=O)N1CCC[C@H]1C(=O)N[C@@H](CC(C)C)C(=O)N1CCC[C@H]1C(=O)N[C@@H](Cc1ccc(O)cc1)C(=O)N1CCC[C@H]1C(=O)N[C@@H](CCCNC(=N)N)C(=O)N1CCC[C@H]1C(=O)O` (H-[Arg(NO2)]RIRPRPPRLPRPRPRPLPYPRP-OH), for which the MIC came out at 1 µM (≈ 2.94 µg/mL) with Escherichia coli [1], 4 µM (≈ 11.8 µg/mL) against Escherichia coli [2], 8 µM (≈ 23.5 µg/mL) in the assay with Escherichia coli [3] and 4 µM (≈ 11.8 µg/mL) in the assay with Escherichia coli [4].
Take `CC[C@H](C)[C@H](NC(=O)[C@@H](CCCNC(=N)N)NC(=O)[C@H](N)CCCNC(=N)N)C(=O)N[C@@H](CCCNC(=N)N)C(=O)N1CCC[C@H]1C(=O)N[C@@H](CCCNC(=N)N)C(=O)N1CCC[C@H]1C(=O)N1CCC[C@H]1C(=O)N[C@@H](CCCNC(=N)N)C(=O)N[C@@H](CC(C)C)C(=O)N1CCC[C@H]1C(=O)N[C@@H](CCCNC(=N)N)C(=O)N1CCC[C@H]1C(=O)N[C@@H](CCCNC(=N)N)C(=O)N1CCC[C@H]1C(=O)N[C@@H](CCCNC(=N)N)C(=O)N1CCC[C@H]1C(=O)N[C@@H](CC(C)C)C(=O)N1CCC[C@H]1C(=O)N[C@@H](Cc1ccc(O)cc1)C(=O)N1CCC[C@H]1C(=O)N[C@@H](CCCNC(=N)N)C(=O)N1CCC[C@H]1C(=O)O`: the MIC in the assay on Escherichia coli [1] turned out to be 2 µM (≈ 5.8 µg/mL); in the assay on Escherichia coli [2], 4 µM (≈ 11.6 µg/mL); in the assay on Escherichia coli [3], 16 µM (≈ 46.4 µg/mL); in the assay on Escherichia coli [4], 4 µM (≈ 11.6 µg/mL).
For the compound `CC[C@H](C)[C@H](NC(=O)[C@H](CCCNC(=N)N(C)C)NC(=O)[C@@H](N)CCCNC(=N)N(C)C)C(=O)N[C@@H](CCCNC(=N)N)C(=O)N1CCC[C@H]1C(=O)N[C@@H](CCCNC(=N)N)C(=O)N1CCC[C@H]1C(=O)N1CCC[C@H]1C(=O)N[C@@H](CCCNC(=N)N)C(=O)N[C@@H](CC(C)C)C(=O)N1CCC[C@H]1C(=O)N[C@@H](CCCNC(=N)N)C(=O)N1CCC[C@H]1C(=O)N[C@@H](CCCNC(=N)N)C(=O)N1CCC[C@H]1C(=O)N[C@@H](CCCNC(=N)N)C(=O)N1CCC[C@H]1C(=O)N[C@@H](CC(C)C)C(=O)N1CCC[C@H]1C(=O)N[C@@H](Cc1ccc(O)cc1)C(=O)N1CCC[C@H]1C(=O)N[C@@H](CCCNC(=N)N)C(=O)N1CCC[C@H]1C(=O)O` (H-[Arg(Me2a)][Arg(Me2a)]IRPRPPRLPRPRPRPLPYPRP-OH), the minimal inhibitory concentration (MIC) with Escherichia coli [1] stood at 2 µM (≈ 5.91 µg/mL); in the assay on Escherichia coli [2], 8 µM (≈ 23.6 µg/mL); against Escherichia coli [3], 16 µM (≈ 47.3 µg/mL); in the assay on Escherichia coli [4], 8 µM (≈ 23.6 µg/mL).

Values taken from ChEMBL document CHEMBL3407397, “Effect of size and N-terminal residue characteristics on bacterial cell penetration and antibacterial activity of the proline-rich peptide Bac7” (J Med Chem, 2015).
